Measurements from PubChem BioAssay AID248 (DTP/NCI, 2004).
Where “and” joins values, the source holds several entries; their conditions need not be identical. Equal entries are not always repeated. Inconclusive results and toxic doses are left out. No stated cut-off is given here; in the data, active means T/C of 150% or more; inactive means T/C below 125%.

Tested on: L1210 leukemia ip in BDF1 mice, survival T/C
Test: NCI In Vivo Anticancer Drug Screen. Data for tumor model L1210 Leukemia (intraperitoneal) in B6D2F1 (BDF1) mice
Conditions: endpoint: mean survival time, higher = longer survival
In short: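 Survival endpoint. Drug-treated group vs vehicle group, expressed as T divided by C. Tumor passaged by transplantation.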

[1] = dose: 50.0 mg/kg/injection, schedule: Q01DX001 (ip), vehicle: carboxymethylcellulose (CMC)
[2] = dose: 100.0 mg/kg/injection, schedule: Q01DX001 (ip), vehicle: carboxymethylcellulose (CMC)
[3] = dose: 200.0 mg/kg/injection, schedule: Q01DX001 (ip), vehicle: carboxymethylcellulose (CMC)
[4] = dose: 400.0 mg/kg/injection, schedule: Q01DX001 (ip), vehicle: carboxymethylcellulose (CMC)
[5] = dose: 100.0 mg/kg/injection, schedule: Q04DX003 (ip), vehicle: saline
[6] = dose: 200.0 mg/kg/injection, schedule: Q04DX003 (ip), vehicle: saline
[7] = dose: 400.0 mg/kg/injection, schedule: Q04DX003 (ip), vehicle: saline
[8] = dose: 100.0 mg/kg/injection, schedule: Q01DX009 (ip), vehicle: saline with Tween-80
[9] = dose: 200.0 mg/kg/injection, schedule: Q01DX009 (ip), vehicle: saline with Tween-80
[10] = dose: 25.0 mg/kg/injection, schedule: Q01DX009 (ip), vehicle: saline with Tween-80
[11] = dose: 50.0 mg/kg/injection, schedule: Q01DX009 (ip), vehicle: saline with Tween-80
[12] = dose: 100.0 mg/kg/injection, schedule: Q04DX003 (ip), vehicle: saline with Tween-80
[13] = dose: 200.0 mg/kg/injection, schedule: Q04DX003 (ip), vehicle: saline with Tween-80
[14] = dose: 400.0 mg/kg/injection, schedule: Q04DX003 (ip), vehicle: saline with Tween-80
[15] = dose: 100.0 mg/kg/injection, schedule: Q04DX002 (ip), vehicle: Klucel (hydroxypropylcellulose) (HPC)
[16] = dose: 200.0 mg/kg/injection, schedule: Q04DX002 (ip), vehicle: Klucel (hydroxypropylcellulose) (HPC)
[17] = dose: 400.0 mg/kg/injection, schedule: Q04DX002 (ip), vehicle: Klucel (hydroxypropylcellulose) (HPC)

Measured: T/C

CCOC(=O)C(C#N)C(C)(C[N+](=O)[O-])C1CC1 (stereo unspecified)
inactive: dose: 0.78 mg/kg/injection, schedule: Q04DX003 (ip), vehicle: saline with Tween-80 96 % of control | dose: 1.56 mg/kg/injection, schedule: Q04DX003 (ip), vehicle: saline with Tween-80 101 % of control | dose: 3.13 mg/kg/injection, schedule: Q04DX003 (ip), vehicle: saline with Tween-80 97 % of control

C/C=C/c1nc2c(c(=O)n(C)c(=O)n2C)n1C
inactive: [1] 106 % of control | [2] 95 % of control | [3] 103 % of control | [4] 97 % of control

CCOC(=O)C1C(=O)C(=O)N2CCCC12 (stereo unspecified)
inactive: [5] 107 % of control | [6] 96 % of control | [7] 98 % of control

CC(C)CC(B1OCCO1)(C1CCCCC1)C1CCCCC1
inactive: [8] 107 % of control | dose: 100.0 mg/kg/injection, schedule: Q04DX003 (ip), vehicle: other 105 % of control | [9] 93 % of control | dose: 200.0 mg/kg/injection, schedule: Q04DX003 (ip), vehicle: other 104 % of control | dose: 400.0 mg/kg/injection, schedule: Q04DX003 (ip), vehicle: other 110 % of control

CNC(=S)Nc1c(C)cc(C)cc1C
inactive: [10] 98 % of control and 108 % of control | dose: 50.0 mg/kg/injection, schedule: Q01DX001 (ip), vehicle: saline with Tween-80 100 % of control | [11] 98 % of control and 105 % of control | dose: 100.0 mg/kg/injection, schedule: Q01DX001 (ip), vehicle: saline with Tween-80 91 % of control | [8] 97 % of control and 92 % of control | dose: 100.0 mg/kg/injection, schedule: Q04DX002 (ip), vehicle: saline with Tween-80 104 % of control and 106 % of control | [12] 104 % of control | dose: 200.0 mg/kg/injection, schedule: Q01DX001 (ip), vehicle: saline with Tween-80 96 % of control | dose: 200.0 mg/kg/injection, schedule: Q04DX002 (ip), vehicle: saline with Tween-80 96 % of control | [13] 94 % of control | [14] 95 % of control

CCCCCCCCCCCCCCCCCC[N+]1(C)CCOCC1
inactive: dose: 6.25 mg/kg/injection, schedule: Q01DX009 (ip), vehicle: Klucel (hydroxypropylcellulose) (HPC) 94 % of control | dose: 12.5 mg/kg/injection, schedule: Q01DX009 (ip), vehicle: Klucel (hydroxypropylcellulose) (HPC) 100 % of control | dose: 25.0 mg/kg/injection, schedule: Q01DX009 (ip), vehicle: Klucel (hydroxypropylcellulose) (HPC) 97 % of control

COC(=O)CN(c1ccc(C#N)c2ccccc12)S(=O)(=O)c1ccccc1
inactive: [12] 94 % of control | [13] 96 % of control | [14] 94 % of control

CN(C)CCC=C1c2ccccc2-c2ccccc21
inactive: dose: 15.0 mg/kg/injection, schedule: Q01DX015 (ip), vehicle: carboxymethylcellulose (CMC) 88 % of control | [10] 105 % of control | dose: 30.0 mg/kg/injection, schedule: Q01DX015 (ip), vehicle: carboxymethylcellulose (CMC) 92 % of control | [1] 93 % of control | [11] 96 % of control | dose: 60.0 mg/kg/injection, schedule: Q01DX015 (ip), vehicle: carboxymethylcellulose (CMC) 92 % of control | [2] 104 % of control | [8] 111 % of control | [5] 115 % of control | dose: 120.0 mg/kg/injection, schedule: Q01DX015 (ip), vehicle: carboxymethylcellulose (CMC) 92 % of control | [3] 98 % of control | [4] 101 % of control

Cc1ccc(S(=O)(=O)N/N=C2/CC(C)(C)CC(=O)C2(C)C)cc1
inactive: [15] 102 % of control | [16] 102 % of control | [17] 102 % of control

COc1ccc(C(O)(c2ccccc2)C(OC(=O)c2cc([N+](=O)[O-])cc([N+](=O)[O-])c2)c2ccccc2)cc1 (stereo unspecified)
inactive: [8] 91 % of control | [9] 96 % of control | dose: 400.0 mg/kg/injection, schedule: Q01DX009 (ip), vehicle: saline with Tween-80 95 % of control

Cc1cc(C)c(Sc2cc(C)sc2C)c(C)c1
inactive: dose: 100.0 mg/kg/injection, schedule: Q01DX001 (ip), vehicle: acetone 91 % of control | dose: 100.0 mg/kg/injection, schedule: Q04DX003 (ip), vehicle: acetone 91 % of control | dose: 200.0 mg/kg/injection, schedule: Q01DX001 (ip), vehicle: acetone 91 % of control | dose: 200.0 mg/kg/injection, schedule: Q04DX003 (ip), vehicle: acetone 91 % of control | dose: 400.0 mg/kg/injection, schedule: Q01DX001 (ip), vehicle: acetone 91 % of control | dose: 400.0 mg/kg/injection, schedule: Q04DX003 (ip), vehicle: acetone 100 % of control

O=C(O)c1ccccc1C(=O)N1CCCC1
inactive: [15] 96 % of control | [16] 86 % of control | [17] 93 % of control

C=C(C)C(=O)OC (tested in a mixture with another compound)
inactive: dose: 50.0 mg/kg/injection, schedule: Q04DX002 (ip), vehicle: Klucel (hydroxypropylcellulose) (HPC) 107 % of control | dose: 75.0 mg/kg/injection, schedule: Q01DX001 (ip), vehicle: other 96 % of control | [15] 101 % of control | dose: 150.0 mg/kg/injection, schedule: Q01DX001 (ip), vehicle: other 94 % of control | [16] 93 % of control | dose: 300.0 mg/kg/injection, schedule: Q01DX001 (ip), vehicle: other 91 % of control | [17] 90 % of control

O=P(CCCl)(CCCl)CCCl
inactive: dose: 50.0 mg/kg/injection, schedule: Q01DX009 (ip), vehicle: saline 87 % of control | dose: 50.0 mg/kg/injection, schedule: Q04DX003 (ip), vehicle: saline 98 % of control | dose: 100.0 mg/kg/injection, schedule: Q01DX009 (ip), vehicle: saline 87 % of control | [5] 106 % of control | dose: 200.0 mg/kg/injection, schedule: Q01DX009 (ip), vehicle: saline 90 % of control | [6] 101 % of control | [7] 101 % of control

O=S(=O)(Cc1ccccc1)CS(=O)(=O)Cc1ccccc1
inactive: dose: 75.0 mg/kg/injection, schedule: Q04DX003 (ip), vehicle: saline 92 % of control | [12] 106 % of control | dose: 150.0 mg/kg/injection, schedule: Q04DX003 (ip), vehicle: saline 90 % of control | [13] 112 % of control | dose: 300.0 mg/kg/injection, schedule: Q04DX003 (ip), vehicle: saline 87 % of control | [14] 98 % of control

COc1ccc(OC)c(/C=C/C(=O)n2cnc3c(N)ncnc32)c1
inactive: [12] 93 % of control | [13] 93 % of control | [14] 88 % of control

COc1cc2cncc(CC(=O)c3ccc4c(c3)OCO4)c2cc1OC
inactive: [12] 106 % of control | [13] 88 % of control

C/C(CCO)=N\NC(N)=S
inactive: dose: 50.0 mg/kg/injection, schedule: Q01DX001 (ip), vehicle: saline 98 % of control | dose: 100.0 mg/kg/injection, schedule: Q01DX001 (ip), vehicle: saline 98 % of control | [5] 100 % of control | dose: 200.0 mg/kg/injection, schedule: Q01DX001 (ip), vehicle: saline 92 % of control | [6] 90 % of control | dose: 400.0 mg/kg/injection, schedule: Q01DX001 (ip), vehicle: saline 101 % of control | [7] 88 % of control
